In patent publication US20030040485A1, “alpha/beta-adrenoceptors blockers and angiotensin converting enzyme inhibitors derived from hydroxyphenyl carboxylic acid and alcohol” (priority 2001, published 2003):

Tests used:
[1] = system: blood pressure of normotensive male Wistar rats; assay: Heart rate and blood pressure in living rat (i.v., anaesthetized); format: in vivo; details: maximal decrease, 2 mg/kg i.v.
From the text: Normotensive Male Wistar rats (NTRs), weighing 200˜300 g were abdominal anaesthetized with pentobarbital sodium. Tracheal was cannulated to maintain normal respiration. Polyethylene tube was inserted into the left femoral vein to facilitate drug administration. A 3-way stopcock was used, with one end comnected to a syringe for drug injection, while the other end was connected to the syringe filled with physiological saline. The latter was used to prevent residual drugs in the polyethylene tube after injection, which would affect experimental accuracy.
The right femoral artery was also inserted with polyethylene, and a 3-way stopcock was used tool, where one end was connected to heparin solution to prevent embolism. The other end was comnected to a Disposable Diaphragm Dome, TA1019, and linked to a pressure transducer (Model P10EZ; Spectramed, Oxnard, Calif., USA). Through an amplifier, a recorder recorded the overall and average arterial pressure; heart rate to evaluate the effect of drug on blood pressure and heart rate. Different concentrations 0.1, 1.0, 2.0, 3.0 mg/kg of test compounds were given to the rats via femoral vein and the differences in the heart rate and blood pressure were compared. Table 2 shown maximal decrease of blood pressure affect of compounds after given 2.0 mg/kg test compounds to the rats.

[2] = biological target: β1-adrenoceptor (left atrium) (Rattus norvegicus, UniProt P18090); assay: β1-adrenoceptor antagonism, left atrium, pA2; details: Schild plot, mean ± SEM of six to eight experiments
Sequence of β1-adrenoceptor (left atrium) (P18090 whole entry): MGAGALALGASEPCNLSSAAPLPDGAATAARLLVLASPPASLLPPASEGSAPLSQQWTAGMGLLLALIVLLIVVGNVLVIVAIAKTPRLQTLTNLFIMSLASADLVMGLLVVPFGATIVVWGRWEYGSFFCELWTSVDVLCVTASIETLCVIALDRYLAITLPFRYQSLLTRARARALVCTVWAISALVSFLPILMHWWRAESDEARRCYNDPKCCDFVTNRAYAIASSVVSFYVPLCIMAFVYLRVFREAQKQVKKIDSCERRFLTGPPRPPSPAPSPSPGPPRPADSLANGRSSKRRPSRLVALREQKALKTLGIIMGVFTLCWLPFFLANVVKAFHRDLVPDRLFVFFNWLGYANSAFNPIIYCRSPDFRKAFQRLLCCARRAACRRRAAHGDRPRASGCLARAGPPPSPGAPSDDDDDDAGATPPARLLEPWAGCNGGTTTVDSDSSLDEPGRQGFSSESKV

[3] = system: β2-adrenoceptor (trachea); assay: β2-adrenoceptor antagonism, trachea, pA2; parameters: species or system rat; details: Schild plot, mean ± SEM of six to eight experiments
Procedure: (§1) When the spontaneously beating rate of right atria reached a certain stability, cumulative administration of L-isoproterenol from 1×10^−10˜3×10^−10 M caused the heart rate to increase continuously, and a cumulative dose-response curve was obtained. Then the L-isoproterenol was thoroughly washed off with Kreb's solution to recover the right atria's heart rate stability. After the equilibrum was reached again for at least 60 minutes, different concentrations (10^−7, 10^−6, 10^−5 M) of compounds were added. 30 minutes later, cumulative administration of L-isoproterenol from 1×10^−10˜3×10^−10 M were carried out again, and another new cumulative dose-response curve was obtained. Administration of L-isoproterenol started from concentration 1×10^−10 M, and the concentration was raised 0.5 log each time for a total of six times. Cumulative administration interval was when the previous concentration reached its greatest effect, the next concentration would be immediately given. […] In other groups of rats, after separate administration of test compounds, their pA2 values were obtained.
pA2=−Log KB Log(DRADJ−1)=n log[B]−LogKB

[4] = biological target: T1, angiotensin converting enzyme (ACE) (Rattus norvegicus, UniProt P47820); assay: ACE inhibitory activity in rat serum (Hycor kit, [3H]-hippuryl-glycyl-glycine); format: biochemical; details: mean of three samples
T1 construct: from tissue; host or cells: rat serum
T1 sequence (P47820 36-1238 limits assumed): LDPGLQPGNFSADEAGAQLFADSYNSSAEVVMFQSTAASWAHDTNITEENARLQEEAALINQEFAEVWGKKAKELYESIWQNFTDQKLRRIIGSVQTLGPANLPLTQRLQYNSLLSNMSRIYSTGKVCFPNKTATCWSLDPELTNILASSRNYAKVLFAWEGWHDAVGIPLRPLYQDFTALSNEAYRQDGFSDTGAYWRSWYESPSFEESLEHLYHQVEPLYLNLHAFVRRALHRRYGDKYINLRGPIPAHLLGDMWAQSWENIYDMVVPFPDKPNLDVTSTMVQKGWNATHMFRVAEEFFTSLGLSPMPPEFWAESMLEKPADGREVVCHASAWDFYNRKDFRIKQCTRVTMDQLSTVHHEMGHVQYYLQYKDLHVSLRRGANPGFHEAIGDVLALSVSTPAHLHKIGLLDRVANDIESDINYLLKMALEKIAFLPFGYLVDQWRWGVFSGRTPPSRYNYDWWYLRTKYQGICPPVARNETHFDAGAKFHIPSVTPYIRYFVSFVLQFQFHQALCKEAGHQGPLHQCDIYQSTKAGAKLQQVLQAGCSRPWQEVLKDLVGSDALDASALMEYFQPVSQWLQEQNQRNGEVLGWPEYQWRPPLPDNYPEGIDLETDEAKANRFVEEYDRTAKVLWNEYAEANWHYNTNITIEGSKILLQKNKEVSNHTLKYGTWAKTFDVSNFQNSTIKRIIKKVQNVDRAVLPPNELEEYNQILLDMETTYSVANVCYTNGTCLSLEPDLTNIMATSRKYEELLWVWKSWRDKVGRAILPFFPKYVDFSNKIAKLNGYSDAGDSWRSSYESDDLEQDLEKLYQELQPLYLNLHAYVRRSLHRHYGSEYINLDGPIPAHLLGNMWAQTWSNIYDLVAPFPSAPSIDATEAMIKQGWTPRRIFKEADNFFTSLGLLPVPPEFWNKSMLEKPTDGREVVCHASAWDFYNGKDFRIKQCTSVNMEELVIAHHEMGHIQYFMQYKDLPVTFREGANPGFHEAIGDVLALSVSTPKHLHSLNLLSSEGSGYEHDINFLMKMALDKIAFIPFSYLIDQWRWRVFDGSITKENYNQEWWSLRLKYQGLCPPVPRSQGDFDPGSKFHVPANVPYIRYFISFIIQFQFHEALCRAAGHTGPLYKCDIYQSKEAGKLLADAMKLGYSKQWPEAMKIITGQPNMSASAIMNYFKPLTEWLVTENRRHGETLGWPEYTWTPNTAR
Procedure: ACE value in serum was determined by Hycor kit, rat serum were cultured in 37° C. of [^3H]-hippuryl-glycyl-glycine for 60 minutes. While [^3H]-hippuryl-glycyl-glycine contains three peptide. [^3H] hippuric acid was obtained when extracted of culture solution with ethyl acetate, the content be determined by spectrophotometer. The content in serum sample was as the control group after it was added with 10^−8M, 10^−7M, 10^−6M compounds, then dissolved in PBS.

[5] = system: β1-adrenoceptor (right atrium); assay: β1-adrenoceptor antagonism, spontaneously beating right atrium, pA2 vs L-isoproterenol; details: for β1/β2 Ratio: antilogarithm of difference between mean pA2 of right atrium and trachea; for β1 pA2 value, Right atrium: Schild plot, mean ± SEM of six to eight experiments
Procedure: The spontaneously-beating right atria was clipped on both end by heart shaped clips, where one end was fixed at the bottom of 10 ml of tissue bath made of physiological saline solution, and temperature maintained at 37° C. The other end of the atria was connected to a force transducer, and isometric contractions and beating rate of the right atria were recorded by COULBOURN AT-High-Speed VideoFigure. After the samples were given 250 mg of contractions and reach equilibrium the following experiments were carried out:
as §1
pA2=−Log KB Log(DRADJ−1)=n log[B]−LogKB

Row | SMILES | Decrease of blood pressure [1] [mmHg] | β1 pA2 value, Left atrium [2] | β2 pA2 value, Trachea [3] | Inhibitory activity of ACE, In Rat Serum ([4]; 10^−6M) [%] | Inhibitory activity of ACE, In Rat Serum ([4]; 10^−7M) [%] | Inhibitory activity of ACE, In Rat Serum ([4]; 10^−8M) [%] | β1/β2 Ratio [5] | β1 pA2 value, Right atrium [5]
1 | CCOC(=O)C(CCc1ccc(OCC(O)CNCCOc2ccccc2OC)cc1)NC(C)C(=O)N1CCCC1C(=O)O (mixture of isomers) [compound 6, Labetapril] | 65 ± 9.2 | 5.31 | 5.43 | 81 | 67 | 28 | 1.4 | 5.41
2 | CCOC(=O)C(CCc1ccccc1)NC(C)C(=O)N1CCCC1C(=O)OCc1ccc(OCC(O)CNC(C)(C)C)c(OC)c1 (stereo not shown) [compound 7, Vanynolpril] | 55 ± 6.3 | 5.78 | 5.64 | 83 | 74 | 35 | 1.9 | 5.87
